US20120071475A1, “UREA DERIVATIVES HAVING PI3K-INHIBITING ACTIVITY” (SHIONOGI & CO., LTD., priority 2009, published 2012)
pKi: −log10 of the molar value.

Tests used:
CYP3A4 = molecular target: T1, CYP3A4 (Homo sapiens, UniProt P08684); test: CYP3A4 fluorescence MBI test; type: in vitro ADME; details: difference in IC50 with 0 or 30 minutes pre-reaction; CYP3A4 expressed in E. coli, substrate 7-BFC
T1 construct: host or cells: E. coli
Outline: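 E. coli-expressed CYP3A4 debenzylating 5.6 μmol/L 7-BFC to fluorescent 7-HFC (Ex 420/Em 535 nm) in K-Pi pH 7.4 at 25° C, 15 min reaction. NADPH pre-incubation of 0 or 30 min, with 10-fold dilution before reaction. IC50 from 0.625–20 μmol/L (6 points); (+) for an IC50 shift ≥5 μmol/L, (−) for ≤3 μmol/L.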

hERG channel (IKr) = molecular target: T2, hERG channel (IKr) (Homo sapiens, UniProt Q12809); test: hERG test (whole-cell patch-clamp, IKr in HEK293 cells); type: cell-based; details: human, HEK293 cells expressing hERG channel, pH 7.4, inhibition of maximum tail current (IKr), compound 1 μM
T2 construct: expressed in transfected cells; host or cells: HEK293
Excerpt: For the purpose of risk evaluation of QT interval extension of electrocardiogram, the activity on delayed rectification K^+ current (IKr), which plays an important role in a cardiac ventricle repolarization process, was examined using the HEK293 cell that was made to express human ether-a-go-go related gene (hERG) channel.
Using an automatic patch-clamp system (PatchXpress 7000A, Axon Instruments Inc.), by a whole-cell patch-clamp method, after the cell was maintained at a membrane potential of −80 mV, IKr induced upon applying depolarizing stimulation of +50 mV for 2 seconds and further applying repolarizing stimulation of −50 mV for 2 seconds was recorded. After generated electric current became stable, a test substance dissolved at an intended concentration in extracellular fluid (137 mmol/L NaCl, 4 mmol/L KCl, 1.8 mmol/L CaCl2.2H2O, 1 mmol/L MgCl2.6H2O, 10 mmol/L glucose, 10 mmol/L HEPES (4-(2-hydroxyethyl)-1-piperazineethanesulfonic acid), pH=7.4) was applied to the cell for 10 minutes under room temperature condition. From the obtained IKr, the absolute value of the maximum tail current was measured using analysis software (DataXpress ver. 1, Molecular Devices Corporation) and the value of the electric current in a maintained membrane potential as baseline. Moreover, an inhibition ratio for the maximum tail current prior to the application of the test substance was calculated and then compared with a group of media-application (0.1% dimethylsulfoxide solution) to evaluate influence of the test substance on IKr.

PI3Kγ [1] = molecular target: T3, PI3Kγ (Homo sapiens, UniProt P48736); test: PI3Kγ inhibitory activity (PI3-kinase HTRF assay, inhibition ratio); type: biochemical; details: 0.5 h, compound at 10 μmol/L; read-out: PI3Kg Inhibition Ratio % (10 μM)
Outline: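 Compound at 10 μmol/L preincubated 10 min with PI3Kγ and PIP2 substrate, then reacted with ATP for 30 minutes at room temperature; the compound, substrate and ATP figures as printed (40 μmol/L each) are solution concentrations. HTRF 665/620 nm ratio read after 18 hours. Inhibition ratio calculated against no-compound (100%) and no-enzyme (0%) controls.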

AKT phosphorylation = AKT phosphorylation inhibitory activity in MCP-1 stimulated THP-1 cells (sandwich ELISA); type: cell-based, Human; details: Homo sapiens, compound at 1 μmol/L, MCP-1 stimulation, read-out: AKT phosphorylation inhibition ratio
Experimental: (1) The AKT phosphorylation inhibitory activity of a compound was evaluated according to the following procedure. (2) Human monocyte-like cell line THP-1 was washed with RPMI-1640 media, incubated in the presence of 5% CO2 at 37° C. for 3 hours, washed with Hank's balanced salt solution (HBSS), adjusted to a cell concentration of 6.7×10^6/mL, and then used in an experiment. (3) 30 μL of the cell suspension and 60 μL of each compound solution containing 0.2% DMSO/HBSS were mixed and then preincubated at 37° C. for 5 minutes. 30 μL of HBSS containing 1.2 μg/mL of MCP-1 was added thereto and then incubated for 60 seconds at 37° C. (4) 30 μL of a cell lysate (the final concentrations: 20 mmol/L Tris-HCl (pH 7.5), 150 mmol/L NaCl, 1 mmol/L EDTA, 1 mmol/L EDTA, 1% Triton X-100, 2.5 mmol/L sodium pyrophosphate, 1 mmol/L β-glycerophosphate, 1 mmol/L Na3VO4, 1 μg/ml leupeptin, 50 nmol/L APMSF) was added thereto to lyse cells. (5) The amount of AKT phosphorylation in the cell solution was measured by sandwich ELISA method using anti-Phospho-Akt (Ser473) antibody and anti-AKT1 antibody. (6) Anti-Phospho-Akt (Ser473) antibodies or anti-AKT1 antibodies were immobilized onto the solid phase of a micro well plate. The prepared cell lysate was added to the micro well plate, incubated, and then washed with ELISA wash solution. (7) An anti-AKT1 antibody or anti-Phospho-Akt (Ser473) antibody, which forms a counterpart to an antibody immobilized on the solid phase, was added thereto, incubated, washed similarly, and then reacted with an HRP-labeled anti-mouse IgG antibody. (8) After incubating for 30 minutes and then washing similarly, 100 μL of TMB (3,3′,5,5″-tetramethylbenzidine) was added thereto, followed by reacting for 30 minutes. (9) 100 μL of stop solution was added to quench the color reaction, and then the absorbance at 450 nm was measured. (10) The amount of AKT phosphorylation in a sample in the absence of a compound was defined as 100% activity, and the amount of AKT phosphorylation in a sample in the absence of MCP-1 was defined as 0% activity to calculate an inhibition ratio of each compound. The measurement was performed for a 1 μmol/L solution of each compound.

[2] = system: CYP1A2, CYP2C9, CYP2C19, CYP2D6 and CYP3A4 (one value for the five species); test: CYP inhibition test, five CYP species together (5CYPs_IC50; pooled human liver microsome); type: in vitro ADME; details: human, microsomes
Excerpt: O-de-ethylation of 7-ethoxyresorufin (CYP1A2), methyl-hydroxylation of tolbutamide (CYP2C9), 4′-hydroxylation of mephenyloin (CYP2C19), O-demethylation of dextromethorphan (CYP2D6), and hydroxylation of terfenadine (CYP3A4), which are typical substrate for metabolic reactions of human main CYP5 molecular species (CYP1A2, 2C9, 2C19, 2D6, and 3A4), were adopted as indexes.
The reaction conditions are as follows: substrate: 0.5 μmol/L of ethoxyresorufin (CYP1A2), 100 μmol/L of tolbutamide (CYP2C9), 50 μmol/L of S-mephenyloin (CYP2C19), 5 μmol/L of dextromethorphan (CYP2D6), and 1 μmol/L of terfenadine (CYP3A4); reaction time; 15 minutes; reaction temperature: 37° C.; enzyme: pooled human liver microsome 0.2 mg protein/mL; test drug concentration: 1, 5, 10, and 20 μmol/L (4 points).
In a 96-well plate, as a reaction solution, five kinds of substrates, a human liver microsome, and a test drug were added to 50 mmol/L Hepes buffer solution in the aforementioned ratio. A coenzyme NADPH was added to start a metabolic reaction, which is an index. After reacting at 37° C. for 15 minutes, a solution of methanol/acetonitrile (1/1 (v/v)) was added to quench the reaction. After centrifugation at 3000 rpm for 15 minutes, resorufin (CYP1A2 metabolite) in the supernatant was quantitated with a fluorescence multilabel counter, and hydroxylated tolbutamide (CYP2C9 metabolite), 4′-hydroxylated mephenyloin (CYP2C19 metabolite), […], terfenadine in alcohol form (CYP3A4 metabolite) were quantitated with LC/MS/MS.
The case wherein only DMSO (a solvent which dissolved a drug) was added to a reaction system was defined as a control (100%). When a test drug solution was added, the remaining activity (%) at each concentration was calculated, and then IC50 was calculated with a concentration and an inhibition ratio by an inverse estimation using a logistic model.

[3] = Metabolic stability test (pooled human liver microsome); type: in vitro ADME; details: percentage of test compound remained after 30 minutes, pooled human liver microsome 0.5 mg protein/mL, 1 mmol/L NADPH, 37° C., compound 0.5 μM
Outline: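 Pooled human liver microsomes (0.5 mg protein/mL) incubated with compound and 1 mmol/L NADPH at 37° C. in pH 7.4 Tris buffer for 0 or 30 min. Parent quantified by LC/MS/MS after methanol/acetonitrile quench; value is % remaining at 30 min versus 0 min.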

PI3Kγ [4] = molecular target: T3, PI3Kγ; test: PI3Kγ inhibitory activity (Ki value); type: biochemical; details: read-out: PI3Kγ Ki value
Experimental: The PI3Kγ inhibitory activity (Ki value) of a compound was evaluated according to the following procedure:
5 μL of a compound solution containing 10% DMSO and […] of a compound was changed to 5 μL of a compound solution containing 10% DMSO and either 200, 64, 20, 6.4, 2, 0.64, or 0.20 μmol/L of the compound (optionally, this is diluted to a lower concentration). Using a method similar to the method for measuring PI3Kγ inhibitory activity, inhibition ratios of PI3Kγ were measured in the presence of the compound at 50, 16, 5, 1.6, 0.5, 0.16, and 0.05 μmol/L (optionally, a lower concentration). Then an IC50 value was calculated by a logistic approximation method or the linear regression method using two concentrations that cross 50% inhibition. Separately, the ATP concentration in the reaction solution (40 μmol/L ATP, 10 mmol/L MgCl2, 5 mmol/L DTT) at the time of the start of a reaction in the absence of the compound was changed to 80, 40, 20, 10, 5, 2.5, 1.25, or 0.625 μmol/L. Then, HTRF ratios were measured by a similar method. The value obtained by subtracting the HTRF ratio at each ATP concentration from the HTRF ratio in the absence of PI-3 kinase y was defined as the value obtained by multiplying reaction rate (v) at each ATP concentration with a constant. The Michaelis-Menten constant Km was then calculated by the Lineweaver-Burk plot method. The Ki value of a compound was calculated by the following formula wherein “μM” denotes “μmol/L.”
Ki value ═IC50 value/(1+test ATP concentration (μM)/Km (μM))

T2 sequence (Q12809 whole entry): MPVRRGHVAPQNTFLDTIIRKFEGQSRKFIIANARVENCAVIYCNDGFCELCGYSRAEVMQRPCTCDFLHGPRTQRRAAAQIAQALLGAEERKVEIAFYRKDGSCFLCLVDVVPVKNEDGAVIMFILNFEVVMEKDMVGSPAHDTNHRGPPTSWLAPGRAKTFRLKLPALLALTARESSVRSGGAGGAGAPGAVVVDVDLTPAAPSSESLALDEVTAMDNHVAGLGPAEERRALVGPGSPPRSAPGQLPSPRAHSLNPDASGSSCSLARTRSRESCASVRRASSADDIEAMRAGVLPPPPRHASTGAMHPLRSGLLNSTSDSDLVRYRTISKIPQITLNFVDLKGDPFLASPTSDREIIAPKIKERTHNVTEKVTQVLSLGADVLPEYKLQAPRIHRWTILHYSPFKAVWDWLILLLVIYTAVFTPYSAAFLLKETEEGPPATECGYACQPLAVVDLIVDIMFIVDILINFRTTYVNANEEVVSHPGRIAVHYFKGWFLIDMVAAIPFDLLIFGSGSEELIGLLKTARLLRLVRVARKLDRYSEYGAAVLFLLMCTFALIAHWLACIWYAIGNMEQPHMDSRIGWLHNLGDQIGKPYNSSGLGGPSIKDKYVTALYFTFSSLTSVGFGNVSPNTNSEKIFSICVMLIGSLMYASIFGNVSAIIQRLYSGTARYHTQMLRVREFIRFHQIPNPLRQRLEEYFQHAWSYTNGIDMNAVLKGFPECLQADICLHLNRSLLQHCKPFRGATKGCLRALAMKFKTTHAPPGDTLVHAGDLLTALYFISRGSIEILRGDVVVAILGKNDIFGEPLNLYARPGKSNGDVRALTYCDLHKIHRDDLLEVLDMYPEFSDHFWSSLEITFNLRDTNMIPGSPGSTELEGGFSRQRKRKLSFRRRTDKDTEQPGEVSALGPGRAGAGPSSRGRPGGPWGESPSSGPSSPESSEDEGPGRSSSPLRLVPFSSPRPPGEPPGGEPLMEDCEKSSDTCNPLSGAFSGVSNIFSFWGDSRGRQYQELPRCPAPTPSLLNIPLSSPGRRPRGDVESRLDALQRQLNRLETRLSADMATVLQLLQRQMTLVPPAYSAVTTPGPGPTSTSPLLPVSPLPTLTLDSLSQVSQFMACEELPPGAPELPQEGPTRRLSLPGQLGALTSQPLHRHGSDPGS
T3 sequence (P48736 whole entry, species assumed): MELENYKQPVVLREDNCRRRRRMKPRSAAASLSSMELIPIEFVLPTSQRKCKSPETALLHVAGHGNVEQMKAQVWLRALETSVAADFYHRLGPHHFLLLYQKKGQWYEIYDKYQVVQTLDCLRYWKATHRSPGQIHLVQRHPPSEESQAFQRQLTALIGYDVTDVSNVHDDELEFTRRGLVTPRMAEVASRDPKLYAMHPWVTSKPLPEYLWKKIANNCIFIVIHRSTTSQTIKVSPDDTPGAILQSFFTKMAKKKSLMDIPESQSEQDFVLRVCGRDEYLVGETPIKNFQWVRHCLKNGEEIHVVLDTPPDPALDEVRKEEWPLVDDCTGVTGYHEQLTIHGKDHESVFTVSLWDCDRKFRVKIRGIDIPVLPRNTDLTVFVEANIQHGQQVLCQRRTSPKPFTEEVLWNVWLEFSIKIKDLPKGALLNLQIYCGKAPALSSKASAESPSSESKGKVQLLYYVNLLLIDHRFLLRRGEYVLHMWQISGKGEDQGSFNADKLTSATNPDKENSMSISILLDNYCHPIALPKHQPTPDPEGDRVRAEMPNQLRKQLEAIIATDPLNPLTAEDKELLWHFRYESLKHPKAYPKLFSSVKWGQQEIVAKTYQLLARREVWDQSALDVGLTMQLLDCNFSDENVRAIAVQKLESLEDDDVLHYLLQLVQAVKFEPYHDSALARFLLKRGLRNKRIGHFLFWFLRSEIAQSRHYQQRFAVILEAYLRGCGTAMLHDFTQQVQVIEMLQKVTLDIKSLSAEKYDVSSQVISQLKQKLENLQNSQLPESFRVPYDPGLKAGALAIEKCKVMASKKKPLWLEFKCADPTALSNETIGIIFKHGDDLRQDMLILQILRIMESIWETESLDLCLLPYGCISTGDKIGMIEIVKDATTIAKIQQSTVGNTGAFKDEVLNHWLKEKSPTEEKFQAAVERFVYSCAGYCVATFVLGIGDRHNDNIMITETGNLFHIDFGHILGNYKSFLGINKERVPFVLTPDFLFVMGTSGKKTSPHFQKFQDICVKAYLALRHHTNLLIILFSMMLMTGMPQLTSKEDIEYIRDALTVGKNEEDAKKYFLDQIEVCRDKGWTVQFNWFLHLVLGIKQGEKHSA
T1 sequence (P08684 whole entry): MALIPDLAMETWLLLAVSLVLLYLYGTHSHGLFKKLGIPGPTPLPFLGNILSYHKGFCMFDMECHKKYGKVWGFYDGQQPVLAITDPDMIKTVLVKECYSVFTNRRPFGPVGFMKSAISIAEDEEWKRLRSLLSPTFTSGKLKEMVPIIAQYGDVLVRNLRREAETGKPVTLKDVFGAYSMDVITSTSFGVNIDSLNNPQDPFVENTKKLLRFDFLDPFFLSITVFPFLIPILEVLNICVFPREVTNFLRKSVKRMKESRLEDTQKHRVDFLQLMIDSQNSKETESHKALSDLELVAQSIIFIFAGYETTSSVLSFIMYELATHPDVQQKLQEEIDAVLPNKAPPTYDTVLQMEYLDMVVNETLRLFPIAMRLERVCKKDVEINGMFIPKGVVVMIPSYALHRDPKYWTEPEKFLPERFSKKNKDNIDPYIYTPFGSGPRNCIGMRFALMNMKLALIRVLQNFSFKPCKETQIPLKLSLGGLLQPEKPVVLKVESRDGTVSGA

Row | Structure (SMILES) | MBI (CYP3A4) | inhibition at 10 min, 1 µM (hERG channel (IKr)) [%] | inhibition at 10 µM (PI3Kγ [1]) [%] | inhibition at 1 µM (AKT phosphorylation) [%] | IC50 at 15 min [2] [µM] | hLMS_ox(at 0.5 μM) % [3] [%] | pKi (PI3Kγ [4])
1 | COc1cc(N2CCc3nc(NC(=O)Nc4cnccc4C(=O)NC(C)C)sc3C2)nc(OC)n1 [Compound I-27] | (−) (When 3 μmol/L or less, the compound is shown as (−)) | 2 | ≥ 95 | 94.1 |  |  | 
2 | COc1ccc(N2CCc3nc(NC(=O)Nc4ccccc4C(=O)NC(C)C)sc3C2)cn1 [Compound I-50] |  |  |  |  | ≥ 10 |  | 
3 | COc1cc(N2CCc3nc(NC(=O)Nc4ccccc4C(=O)C(C)C)sc3C2)nc(OC)n1 [Compound I-64] |  |  |  |  | ≥ 10 |  | 
4 | COc1cc(N2CCc3nc(NC(=O)Nc4ccc(F)cc4C(=O)NC(C)C)sc3C2)cnc1OC [Compound I-105] |  |  |  |  | ≥ 10 |  | 
5 | COc1cc(N2CCc3nc(NC(=O)Nc4cn(C)nc4C(=O)NC(C)C)sc3C2)nc(OC)n1 [Compound I-106] |  |  |  |  | ≥ 10 | 83.9 | 
6 | COc1cc(N2CCc3nc(NC(=O)Nc4ccccc4C(O)CCC(C)C)sc3C2)nc(OC)n1 (stereo not drawn) [Compound I-117] |  |  |  |  | > 20 |  | 
7 | CNS(=O)(=O)c1cncc(N2CCc3nc(NC(=O)Nc4ccccc4C(=O)NC(C)C)sc3C2)c1 [Compound I-129] | (−) (When 3 μmol/L or less, the compound is shown as (−)) | 5.5 | ≥ 95 | ≥ 95 |  |  | 
8 | COc1cc(N2CCc3nc(NC(=O)Nc4ccccc4C(=O)NC4CCOC4)sc3C2)nc(OC)n1 (stereo not drawn) [Compound I-135] |  | 1.8 | ≥ 95 | 89 |  | 85.8 | 
9 | Cc1nc(NC(=O)Nc2ccccc2C(=O)NC(C)C)sc1-c1csc(S(=O)(=O)N2CCC(O)CC2)c1 [Compound I-146] |  |  | 77 | ≥ 95 |  |  | 7.33
10 | COc1cc(N2CCc3nc(NC(=O)Nc4cn(C)nc4C(=O)NCC#N)sc3C2)nc(OC)n1 [Compound I-152] |  | 4.7 | ≥ 95 | ≥ 95 |  | 96.8 | 
11 | COc1cc(N2CCc3nc(NC(=O)Nc4cn(C)nc4C(=O)N[C@@H](C)CO)sc3C2)nc(OC)n1 [Compound I-155] |  | 2.9 | 90 | ≥ 95 |  | 95.9 | 
12 | COc1cc(N2CCc3nc(NC(=O)Nc4ccccc4C(=O)NCC(C)O)sc3C2)nc(OC)n1 (stereo not drawn) [Compound I-157] |  | 0.4 | 87 | ≥ 95 |  | 96.2 | 
13 | COc1cc(N2CCc3nc(NC(=O)Nc4ccccc4C(=O)NC(C)C#N)sc3C2)nc(OC)n1 (stereo not drawn) [Compound I-159] |  | 3.8 | 77 | ≥ 95 |  | 85.6 | 
14 | Cc1cc(N2CCc3nc(NC(=O)Nc4ccccc4C(=O)N[C@H](C)CO)sc3C2)nc(Cl)n1 [Compound I-169] |  | 2.7 | ≥ 95 | 75 |  | 94.4 | 
15 | CC(C)NC(=O)c1ccccc1NC(=O)Nc1nc2c(s1)CN(c1ccc(C(F)(F)F)cc1)CC2 [Compound I-208] |  |  |  |  | > 20 |  | 
16 | CC(=O)c1cccc(-c2ccc3nc(NC(=O)Nc4ccccc4OCCC(C)C)sc3n2)c1 [Compound I-219] |  |  | ≥ 95 |  | ≥ 10 |  | 
17 | CC(=O)c1cccc(-c2ccc3nc(NC(=O)Nc4ccccc4N4CCCC4=O)nn3c2)c1 [Compound I-224] |  |  |  |  | ≥ 10 |  | 
